These results are taken from ChEMBL document CHEMBL1201862, “PubChem BioAssay data set” (2004).

Molecules are shown by their SMILES. Activity calls are given as the source filed them. For most assays here, no stated cut-off is given here; in the data, actives have a measured EC50 and inactives only a lower limit.

The test system of assay [1] is HEK293. The assay is described as follows: EBV LMP1 TES2 canonical NF-kB signalling blockers – cell-based, HEK293, luciferase, cherry-pick, dose response (AID 588343). In kind it is functional. The note with it: Homo sapiens.
Assay [2] has as its target Heat shock protein HSP 90-alpha (Homo sapiens, UniProt P07900). It counts as functional, organism-based.
The subject of assay [3] is Streptococcus sp. 'group A'. The experiment in a line: Streptococcus pyogenes SK(-)GAS viability under kanamycin – luminescence, BacTiterGlo, confirmation, counter-screen for streptokinase expression inhibitor project, dose response (AID 1900). In kind it is functional, organism-based.
Assay [4] has as its target T1, Streptokinase A (Streptococcus pyogenes serotype M1, UniProt P10520).
T1 sequence (P10520 whole entry): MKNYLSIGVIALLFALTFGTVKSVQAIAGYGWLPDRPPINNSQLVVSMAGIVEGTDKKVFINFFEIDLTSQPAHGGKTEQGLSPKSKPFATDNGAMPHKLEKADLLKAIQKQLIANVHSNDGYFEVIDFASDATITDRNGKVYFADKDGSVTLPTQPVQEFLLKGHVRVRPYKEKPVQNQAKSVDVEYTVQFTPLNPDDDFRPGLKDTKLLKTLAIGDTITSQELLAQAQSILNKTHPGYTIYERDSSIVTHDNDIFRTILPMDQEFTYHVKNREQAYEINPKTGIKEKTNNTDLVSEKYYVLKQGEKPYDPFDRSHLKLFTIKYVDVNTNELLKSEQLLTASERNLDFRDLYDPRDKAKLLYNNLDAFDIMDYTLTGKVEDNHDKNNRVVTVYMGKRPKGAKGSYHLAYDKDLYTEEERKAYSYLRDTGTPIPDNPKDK
The experiment in a line: viability-normalized secreted streptokinase activity reduction – plasminogen activation absorbance, OD405, dose response (AID 1914).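 Further: secreted streptokinase activity via plasminogen activation per viability signal from cell pellet.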 In kind it is functional, Streptococcus pyogenes M1 GAS.

A short description of assay [5]: Trypanosoma cruzi growth suppression in host cells – NIH3T3 host cells, beta-gal luminescence, confirmation (AID 2044).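 Further: intracellular parasites grown in NIH/3T3 mouse fibroblasts as host cells; luminescent beta-galactosidase reporter signal from transgenic T. cruzi replicating inside host cells; inhibitors lower the luminescence signal.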 In kind it is functional, cell-based.
Assay [6] in a line: NIH3T3 cell viability loss – ATP luminescence, mouse fibroblasts, counter-screen, dose response (AID 2010).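 Further: cells exposed to compound for about 90 hours before reading.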 It counts as functional, cell-based.
In assay [7] the test system is Streptococcus. The assay is described as follows: GAS UMAA2166 growth inhibition – luminescence, BacTiterGlo, counter-screen for streptokinase expression inhibitor project, dose response (AID 1915).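 Further: potency for reduction of bacterial viability or growth.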 In kind it is functional, organism-based.
Assay [8] can be described thus: reduction of Shn3 3'UTR-driven luciferase in osteoblasts – cell-based, Clone20 osteoblasts, firefly luciferase, cherry-picked, dose response (AID 624132).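 Further: firefly luciferase luminescence from reporter carrying the Shn3 3'UTR in osteoblasts.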 In kind it is functional.
Assay [9] can be described thus: non-specific 3'UTR reporter inhibition in Clone20-Shn3RL – cell-based, Renilla luciferase, cherry-picked, counter-screen for Shn3 inhibitor project, dose response (AID 624133). In kind it is functional.
The nature of assay [10]: luciferase reporter signal suppression in cells – H4 neuroglioma cells, luminescence, dose response (AID 1990). It counts as functional, cell-based.
Assay [11] can be described thus: Luminescence Cell-Based Dose Response HTS to Identify Inhibitors of 5'UTR Stem-Loop Driven Prion Protein mRNA Translation in H4 Neuroglioblastoma Cells. [Related pubchem assays: 1827 (Project Summary), 1813 (Primary HTS)]. It counts as functional.
Assay [12] can be described thus: alpha-synuclein stem-loop luciferase translation blockers – H4 neuroglioma cells, luminescence, confirmation (AID 1988). In kind it is functional, cell-based.
In assay [13] the target is Nonstructural protein 1 (Influenza A virus, UniProt Q194T2). It counts as functional, Influenza A virus (A/California/07/2009(H1N1)).
Chain of Nonstructural protein 1 (Q194T2 whole entry): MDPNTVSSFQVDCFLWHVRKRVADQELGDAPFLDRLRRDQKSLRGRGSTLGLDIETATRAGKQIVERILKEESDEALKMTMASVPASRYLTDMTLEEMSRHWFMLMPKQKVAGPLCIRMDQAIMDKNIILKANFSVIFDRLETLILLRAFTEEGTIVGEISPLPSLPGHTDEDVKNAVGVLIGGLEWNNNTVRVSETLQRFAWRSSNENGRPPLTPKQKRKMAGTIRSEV
Assay [14] has as its target T2, RNA-binding protein pos-1 (Caenorhabditis elegans, UniProt G5EF15).
T2 sequence (G5EF15 whole entry): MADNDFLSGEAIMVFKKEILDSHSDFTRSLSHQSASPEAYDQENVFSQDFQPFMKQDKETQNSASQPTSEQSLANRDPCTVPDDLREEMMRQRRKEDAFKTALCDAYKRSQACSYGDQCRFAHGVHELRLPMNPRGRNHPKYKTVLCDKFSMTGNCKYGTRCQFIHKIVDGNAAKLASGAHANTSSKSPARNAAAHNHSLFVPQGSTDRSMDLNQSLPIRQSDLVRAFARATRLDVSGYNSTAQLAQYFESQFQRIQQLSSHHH
The experiment in a line: disruptors of C. elegans POS-1 RNA interaction – biochemical, fluorescence polarization, dose response (AID 1964).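 Further: purified POS-1 fused to maltose binding protein made in E. coli; potency of compounds blocking POS-1 binding to fluorescent RNA.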

For assay [15], the target named is T3, Zinc finger protein mex-5 (Caenorhabditis elegans, UniProt Q9XUB2).
T3 sequence (Q9XUB2 whole entry): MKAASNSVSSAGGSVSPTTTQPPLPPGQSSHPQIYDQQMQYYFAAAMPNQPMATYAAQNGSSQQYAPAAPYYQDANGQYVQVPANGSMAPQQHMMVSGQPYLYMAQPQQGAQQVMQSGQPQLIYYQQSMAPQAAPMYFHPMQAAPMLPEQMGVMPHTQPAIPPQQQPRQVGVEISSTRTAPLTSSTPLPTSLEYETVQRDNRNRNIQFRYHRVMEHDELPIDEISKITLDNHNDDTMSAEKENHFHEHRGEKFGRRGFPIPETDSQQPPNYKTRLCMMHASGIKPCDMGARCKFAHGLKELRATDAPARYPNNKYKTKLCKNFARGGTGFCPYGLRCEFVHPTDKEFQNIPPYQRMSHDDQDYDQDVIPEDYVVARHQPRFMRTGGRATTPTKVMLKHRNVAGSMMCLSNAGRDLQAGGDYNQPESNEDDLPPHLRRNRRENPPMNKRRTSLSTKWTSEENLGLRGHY
The experiment in a line: potency of MEX-5 RNA-binding blockers – biochemical, C. elegans, fluorescence polarization, dose response (AID 1960).

Assay [16] addresses Genome polyprotein (dengue virus type 2, UniProt P29990). The experiment in a line: flavivirus cap methylation enzyme inhibition – biochemical, confirmation dose response, primary screen (AID 588689). It counts as functional.
Assay [17] deals with T4, Corticotropin-releasing factor receptor 2/Corticotropin-releasing factor-binding protein (Homo sapiens, UniProt P24387+Q13324).
T4 sequence (Q13324 whole entry): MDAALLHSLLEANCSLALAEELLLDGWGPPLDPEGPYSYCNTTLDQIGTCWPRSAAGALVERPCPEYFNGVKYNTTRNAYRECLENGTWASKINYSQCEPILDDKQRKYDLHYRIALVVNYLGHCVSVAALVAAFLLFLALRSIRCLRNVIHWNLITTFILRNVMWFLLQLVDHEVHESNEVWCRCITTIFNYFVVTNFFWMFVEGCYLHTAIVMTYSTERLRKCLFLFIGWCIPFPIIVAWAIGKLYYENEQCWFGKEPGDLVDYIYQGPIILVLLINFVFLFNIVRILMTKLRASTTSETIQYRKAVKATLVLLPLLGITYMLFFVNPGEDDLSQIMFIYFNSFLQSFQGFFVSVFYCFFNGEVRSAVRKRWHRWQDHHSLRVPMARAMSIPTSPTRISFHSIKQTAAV
T4 sequence (P24387 whole entry): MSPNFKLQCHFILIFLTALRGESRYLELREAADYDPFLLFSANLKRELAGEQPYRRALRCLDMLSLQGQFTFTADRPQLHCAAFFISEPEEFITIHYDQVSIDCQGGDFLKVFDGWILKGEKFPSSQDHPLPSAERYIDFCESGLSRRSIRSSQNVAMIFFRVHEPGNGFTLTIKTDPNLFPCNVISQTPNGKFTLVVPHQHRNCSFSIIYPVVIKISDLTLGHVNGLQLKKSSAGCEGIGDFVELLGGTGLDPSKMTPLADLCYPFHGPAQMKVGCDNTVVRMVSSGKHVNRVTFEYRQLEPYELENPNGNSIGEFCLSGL
The assay is described as follows: activators of CRF receptor 2 with binding protein – uHTS hits, confirmation (AID 602473). In kind it is functional. The note with it: read-out: EC50_Mean.

Assay [18] relates to INS1. The experiment in a line: INS-1E survival protection against cytokine death – cell-based, luminescence, retest, dose response (AID 449756).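 Further: cell death triggered by IL-1 beta plus TNF-alpha plus IFN-gamma mixture; protective hits raise ATP signal compared with cytokine alone wells.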 In kind it is functional. To be noted: Rattus norvegicus.
For assay [19], the target named is T5, High affinity choline transporter 1 (Homo sapiens, UniProt Q9GZV3).
T5 sequence (Q9GZV3 whole entry): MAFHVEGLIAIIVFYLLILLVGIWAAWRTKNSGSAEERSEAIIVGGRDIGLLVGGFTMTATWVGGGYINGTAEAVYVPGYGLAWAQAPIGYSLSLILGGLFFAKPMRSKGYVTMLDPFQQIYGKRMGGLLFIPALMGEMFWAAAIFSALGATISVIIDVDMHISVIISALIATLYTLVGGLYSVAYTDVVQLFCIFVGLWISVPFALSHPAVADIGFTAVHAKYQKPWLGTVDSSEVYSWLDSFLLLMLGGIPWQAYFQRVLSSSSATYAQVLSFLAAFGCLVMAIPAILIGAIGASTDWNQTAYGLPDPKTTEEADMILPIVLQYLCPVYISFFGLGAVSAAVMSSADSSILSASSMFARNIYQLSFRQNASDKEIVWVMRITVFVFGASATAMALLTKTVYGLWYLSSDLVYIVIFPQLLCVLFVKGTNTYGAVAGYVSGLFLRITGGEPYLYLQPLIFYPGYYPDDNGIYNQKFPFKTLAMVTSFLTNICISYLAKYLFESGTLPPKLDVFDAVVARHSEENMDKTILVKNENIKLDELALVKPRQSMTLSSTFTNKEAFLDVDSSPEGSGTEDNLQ
The assay is described as follows: human choline transporter blockers, potency – cell-based, 5-point CRC, membrane potential dye, dose response (AID 504840). In kind it is functional.

Chain of Genome polyprotein (P29990 2492-3391 limits assumed): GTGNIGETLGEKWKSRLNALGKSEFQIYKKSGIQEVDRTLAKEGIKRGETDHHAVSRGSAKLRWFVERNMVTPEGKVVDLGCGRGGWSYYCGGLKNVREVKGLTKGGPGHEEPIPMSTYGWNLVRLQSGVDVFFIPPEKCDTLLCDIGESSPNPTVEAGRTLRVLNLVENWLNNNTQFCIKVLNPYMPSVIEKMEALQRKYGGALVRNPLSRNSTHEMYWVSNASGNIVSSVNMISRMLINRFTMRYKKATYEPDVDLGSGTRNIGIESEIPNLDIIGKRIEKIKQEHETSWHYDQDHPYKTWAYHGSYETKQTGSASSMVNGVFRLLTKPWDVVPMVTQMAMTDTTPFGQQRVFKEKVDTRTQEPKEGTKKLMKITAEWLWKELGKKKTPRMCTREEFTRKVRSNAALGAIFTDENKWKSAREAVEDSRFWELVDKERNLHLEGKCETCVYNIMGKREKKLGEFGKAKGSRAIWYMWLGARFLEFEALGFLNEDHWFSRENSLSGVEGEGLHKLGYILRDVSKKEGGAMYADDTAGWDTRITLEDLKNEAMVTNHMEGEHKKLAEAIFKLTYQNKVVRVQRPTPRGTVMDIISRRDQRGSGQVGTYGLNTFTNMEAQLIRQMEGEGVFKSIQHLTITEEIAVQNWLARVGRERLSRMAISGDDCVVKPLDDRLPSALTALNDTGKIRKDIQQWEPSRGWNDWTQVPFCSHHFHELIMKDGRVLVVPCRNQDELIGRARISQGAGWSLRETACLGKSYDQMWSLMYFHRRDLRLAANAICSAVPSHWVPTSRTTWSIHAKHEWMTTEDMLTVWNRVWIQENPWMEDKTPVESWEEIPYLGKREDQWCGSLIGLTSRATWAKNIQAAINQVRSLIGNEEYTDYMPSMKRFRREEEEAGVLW

As for `CCN1CCN(Cc2ccc(NC(=O)c3ccc(C)c(NC(=O)c4cccc(-c5cnnc(O)c5)c4)c3)cc2C(F)(F)F)CC1`, the concentration at half-maximal activity (AC50) in assay [1] is 1.83 µM (active). As for `CC1(c2nnc(Cc3ccccc3)o2)CC(c2ccccc2[N+](=O)[O-])=NO1` (stereo unspecified), in [2], the concentration at half-maximal activity (AC50) was 1.59 µM (active).

With `Oc1c(N=NC(S)=Nc2ccccc2F)c2ccccc2n1Cc1ccc(F)cc1`, the EC50 is 2.84 µM (active) in assay [3]; 0.607 µM (inconclusive) in assay [4]; 1.06 µM (active) in assay [5]; 1.62 µM (active) in assay [6]; 17.8 µM (active) in [7]. Also, the half-maximal activity concentration (AC50) in assay [1] was 4.02 µM (active). Regarding `COc1ccc(-c2cc(C(=O)N3CCN(c4ccccc4F)CC3)c3ccccc3n2)c(OC)c1`, in assay [2], the AC50 was 5.77 µM (active). On to `CC1CN(C(=O)CCc2cc(C(C)(C)C)c(O)c(C(C)(C)C)c2)CC(C)O1` (stereo unspecified), for which the figures for the AC50 in assay [8] and in assay [9] were 2.56 µM (active) and 3.99 µM (active), respectively. With `COc1ccc(S(=O)(=O)N2CCOCC2)cc1N=Nc1sc(N)nc1-c1ccccc1`, the figures for the EC50 in assay [10], in [11] and in assay [12] were 14.7 µM (active), > 120 µM (not active) and 46.6 µM (active), respectively. Moreover, in [13], the IC50 was > 100 µM (active). Turning to `Cc1c(OCC(=O)C(C)(C)C)ccc2c(-c3ccccc3)cc(=O)oc12`, the concentration at half-maximal activity (AC50) in assay [2] was 7.83 µM (active). `O=[N+]([O-])c1cccc(-c2ccc(/C=N/Nc3nc(N4CCCCC4)nc(N4CCCCC4)n3)o2)c1`: the AC50 in assay [1] was 96.7 µM (active).

For `CC(C)(C)OC(=O)N1CC=C2C(C#N)=C(N)C(C#N)(C#N)[C@H](c3cccnc3)[C@H]2C1`, the EC50 in [10] was > 120 µM (not active); in assay [14], 61.7 µM (active); in [11], > 120 µM (not active); in assay [15] it was 54 µM (active); in assay [12], 60.3 µM (active). The 50% inhibitory concentration (IC50) in assay [16] is > 100 µM (active). For the compound `CCOC(=O)c1c(NC(=O)C(C)Sc2cccc[n+]2[O-])sc2c1CCN(Cc1ccccc1)C2` (stereo unspecified), in [17], the EC50 was 4.81 µM (active).

Consider `COc1ccc2c(c1)[C@H]1[C@H](CO2)[C@H](c2ccccc2)[C@]2(C)C(=O)Nc3ccc(C)cc3C(=O)N12`, for which the half-maximal activity concentration (AC50) in assay [2] is 6.38 µM (active). Consider `COc1ccc(C(=O)N/N=C/c2sc3ccccc3c2O)cc1`, for which the figures for the EC50 in assay [10], in assay [11] and in assay [12] were 12.7 µM (active), 11 µM (active) and 10.2 µM (active), respectively. The AC50 in assay [2] was 2.68 µM (active); in assay [18] it was 1.8 µM (active). In the case of `CCN(CC)c1[nH]cnc2c3ccccc3nc1-2`, the IC50 in assay [19] was 13.8 µM (active).

Take `C=CCN1C(=O)/C(=C/c2cccs2)C(=O)NC1=S`: in assay [16], the half-maximal inhibitory concentration (IC50) is 43.8 µM (active). Consider `CN(C)CCn1c(=S)[nH]c2ccccc2c1=O`, for which, in assay [19], the IC50 is 13.2 µM (active).

For `CCc1ccc([C@@H]2CC=C(C(=O)O)[C@H](c3ccc(C)cc3)N2S(=O)(=O)c2ccc(C)cc2)cc1`, the IC50 in assay [16] was 41.2 µM (active).

Take `COc1ccccc1-c1sc2ccccc2c1-c1ccc(O)cc1`: the concentration at half-maximal activity (AC50) in [2] is 5.22 µM (active).

Take `CCCS(=O)(=O)c1nc(S(=O)(=O)c2ccc(C)cc2)c(N2CCCC2)s1`: in assay [17], the EC50 is > 53 µM (inactive). As to `O=C(NCCCCc1ccccc1)c1ccc(Br)cc1`, the half-maximal activity concentration (AC50) in assay [2] was 3.65 µM (active). Consider `Cc1ccc(-c2cs/c(=N\c3cccnc3)n2CCCn2ccnc2)cc1C`, for which the results for the EC50 in assay [5] and in [6] were 0.118 µM (active) and > 60 µM (not active), respectively. Moreover, the AC50 in [1] is 6.59 µM (active).

As to `COc1ccc(C2=CC(c3ccc(C)cc3)n3nnnc3N2)cc1` (stereo unspecified), the EC50 in [17] is > 53 µM (inactive).
